Results taken from ChEMBL document CHEMBL1127503, “3'-(Arylmethyl)- and 3'-(aryloxy)-3-phenyl-4-hydroxyquinolin-2(1H)-ones: orally active antagonists of the glycine site on the NMDA receptor” (J Med Chem, 1994).

Assays:
Mus musculus [1] = assay: Protection from audiogenic seizure in the DBA/2 mouse 30 min after intraperitoneal administration; format: functional; conditions: ip, 0.5 h
[2] = target: Glutamate receptor ionotropic, NMDA 1 (Rattus norvegicus, UniProt P35439); assay: Inhibition of the binding of [3H]L-689,560 ([3H]-4) to the strychnine-insensitive glycine site on rat brain membranes; format: cell membranes, Membrane
Rattus norvegicus = species on record: Rattus norvegicus; assay: Blockade of NMDA-induced depolarizations on rat cortical slices; format: functional
Mus musculus [3] = assay: Protection from audiogenic seizure in the DBA/2 mouse 30 min after oral administration; format: functional; conditions: 0.5 h
Mus musculus [4] = assay: Protection from audiogenic seizure in the DBA/2 mouse 10 min after intraperitoneal administration; format: functional; conditions: ip

SMILES	ED50 (Mus musculus [1]) [mg/kg]	IC50 [2] [nM]	Kb (Rattus norvegicus) [nM]	ED50 (Mus musculus [3]) [mg/kg]	ED50 (Mus musculus [4]) [mg/kg]
O=C(O)c1cc(O)c2c(I)cc(Cl)cc2n1	> 250	14	410		
Oc1nc2cc(Cl)ccc2c(O)c1-c1cccc(Cc2ccsc2)c1	1.5	2.3	19	5.1	
O=C(Nc1ccccc1)N[C@H]1C[C@H](C(=O)O)Nc2cc(Cl)cc(Cl)c21	> 100	4	110		
COc1ccc(Cc2cccc(-c3c(O)c4ccc(Cl)cc4[nH]c3=O)c2)cc1	0.7	4.5	25	0.9	
O=C(O)CCc1c(C(=O)O)[nH]c2cc(Cl)cc(Cl)c12	> 100	69	1320		
O=c1[nH]c2cc(Cl)ccc2c(O)c1-c1ccccc1	4.5	170	880	7.6	
COCOc1ccc(Cc2cccc(-c3c(O)nc4cc(Cl)ccc4c3O)c2)cc1	0.5	2.2	3.2	0.9	
O=c1[nH]c2cc(Cl)ccc2c(O)c1-c1cccc(Oc2ccccc2)c1	0.9	2	28	0.9	
Oc1nc2cc(Cl)ccc2c(O)c1-c1cccc(Oc2ccsc2)c1	0.8	1.4	5	0.8	
Oc1nc2cc(Cl)ccc2c(O)c1-c1cccc(Cc2ccccc2)c1			87	3.9	1.3
